Data taken from patent US20190202836A1, “SELECTIVE DUAL INHIBITORS OF PI3 DELTA AND GAMMA PROTEIN KINASES” (Rhizen Pharmaceuticals SA, priority 2014, published 2019).
Read-outs that look alike come from different tables or passages of the source.

What was measured:
[1] = Metabolic stability in mouse liver microsomes; format: in vitro ADME; settings: 1 μM test item, 60 minutes, 37° C., NADPH
Experimental: (§1) Metabolic stability studies were conducted on Compounds A, A1, and A2 as well as Example 128 of WO 2012/151525 using mouse, rat, dog, monkey, and human liver microsomes. The protocol for the studies with mouse, rat, and human liver microsomes (all from BD Gentest, USA) is provided below. 0.4 mg protein was preincubated with 2 mM NADPH (cofactor) in phosphate buffer (pH-7.4) for 15 minutes at 37° C. and then added with 1 μM test item and incubated further for 60 minutes in triplicate. The reaction mixture was terminated with methanol containing an internal standard and centrifuged further to analyze the test item remaining in the supernatant by LC-MS/MS. The percent parent compound remaining was calculated in comparison with similar samples terminated at 0 minutes.

[2] = Metabolic stability in dog liver microsomes; format: in vitro ADME
[3] = Oral pharmacokinetics in rats; format: in vivo; settings: Rat, 10 mg/kg
Experimental: The oral bioavailability of Compound A1 (free base) was evaluated in rats and mice. The protocol for the pharmacokinetics studies in rat is provided below.
All animals were fasted overnight (12 hours) before dosing and continued till 4.0 hours after administration of test item. Test item formulations were prepared in 1% Tween 80 and 99% media (0.5% Methyl cellulose, 4000cPs, pH 2.2). The blood samples (150 μL from each animal) were collected from the orbital sinus, and placed into a micro centrifuge tube containing disodium EDTA as an anticoagulant. Blood samples were centrifuged immediately with a speed of 1000 g for 10 min at 4° C. and separated plasma samples were frozen at below −80° C. and stored until analysis. The concentrations of test item in all formulations were analyzed by HPLC. The plasma concentrations of test item in all samples were analyzed by LC-MS/MS. Pharmacokinetic parameters (Cmax, AUC0-t, Tmax, and t^1/2) were estimated by using WinNonlin software. Results are provided in Table 3 for Compound A, A1, and Example 128 of WO 2012/151525 in rats and Compound A1 in mice.

[4] = Metabolic stability in monkey liver microsomes; format: in vitro ADME
Experimental: as §1

[5] = Metabolic stability in rat liver microsomes; format: in vitro ADME; settings: 1 μM test item, 60 minutes, 37° C., NADPH
Experimental: as §1

[6] = Metabolic stability in human liver microsomes; format: in vitro ADME; settings: 1 μM test item, 60 minutes, 37° C., NADPH
Experimental: as §1

[7] = molecular target: PI3Kγ (Homo sapiens, UniProt P48736); assay: Assay 1: Fluorescent (HTRF) determination of PI3 kinase enzyme activity, PI3Kγ; format: biochemical
PI3Kγ, sequence (P48736 whole entry, canonical isoform): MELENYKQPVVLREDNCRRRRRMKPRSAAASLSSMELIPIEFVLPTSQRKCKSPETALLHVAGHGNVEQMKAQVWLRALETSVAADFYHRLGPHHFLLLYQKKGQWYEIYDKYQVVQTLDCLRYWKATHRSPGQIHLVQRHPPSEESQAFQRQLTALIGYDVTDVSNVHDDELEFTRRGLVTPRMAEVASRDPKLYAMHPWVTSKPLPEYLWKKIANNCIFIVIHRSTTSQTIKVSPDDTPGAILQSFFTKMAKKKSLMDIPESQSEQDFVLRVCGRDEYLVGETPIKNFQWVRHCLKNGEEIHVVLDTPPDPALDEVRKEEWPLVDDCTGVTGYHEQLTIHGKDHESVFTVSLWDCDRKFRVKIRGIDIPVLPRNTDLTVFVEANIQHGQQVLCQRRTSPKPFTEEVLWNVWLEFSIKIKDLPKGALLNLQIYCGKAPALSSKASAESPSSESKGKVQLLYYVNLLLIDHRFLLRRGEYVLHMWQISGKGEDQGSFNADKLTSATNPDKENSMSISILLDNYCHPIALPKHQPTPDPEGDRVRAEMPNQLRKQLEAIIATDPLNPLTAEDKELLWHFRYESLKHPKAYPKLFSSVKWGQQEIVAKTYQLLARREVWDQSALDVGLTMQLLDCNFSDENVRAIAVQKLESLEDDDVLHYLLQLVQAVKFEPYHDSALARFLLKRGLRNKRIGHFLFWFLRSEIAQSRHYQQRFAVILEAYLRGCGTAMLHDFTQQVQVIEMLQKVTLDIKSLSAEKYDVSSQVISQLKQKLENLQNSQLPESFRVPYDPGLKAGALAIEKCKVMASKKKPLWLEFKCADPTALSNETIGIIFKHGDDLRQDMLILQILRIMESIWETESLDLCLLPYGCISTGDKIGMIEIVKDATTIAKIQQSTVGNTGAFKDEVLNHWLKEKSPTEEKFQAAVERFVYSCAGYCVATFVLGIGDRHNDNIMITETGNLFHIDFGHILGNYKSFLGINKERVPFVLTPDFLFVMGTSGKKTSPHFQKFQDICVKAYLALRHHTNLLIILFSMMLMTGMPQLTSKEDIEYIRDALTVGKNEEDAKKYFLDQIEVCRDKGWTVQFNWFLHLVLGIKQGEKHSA
Excerpt: (§2) Phosphoinositide 3 kinases (PI3K) belong to a class of lipid kinases that play a critical role in the regulation of several key cellular processes. The PI3K are capable of phosphorylating the 3-hydroxy position of phosphoinositols thereby generating second messengers involved in downstream signaling events. The homogenous time resolved fluorescence (HTRF) assay allows detection of 3,4,5-triphosphate (PIPS) formed as a result of phosphorylation of phosphotidylinositol 4,5-biphosphate (PIP2) by PI3K isoforms such as α, β, γ or δ.
(§3) PI3K isoform activity for α, β, γ or δ was determined using a PI3K human HTRF™ Assay Kit (Millipore, Billerica, Mass.) with modifications. All incubations were carried out at room temperature. 0.5 μl of 40× inhibitor (in 100% DMSO) or 100% DMSO were added to each well of a 384-well white plate (Greiner Bio-One, Monroe, N.C.) containing 14.5 μl 1× reaction buffer/PIP2 (10 mM MgCl2, 5 mM DTT, 1.38 μM PIP2) mix with or without enzyme, followed by 5 μl/well of 400 μM ATP and incubated for an additional 30 minutes. The reaction was terminated by adding 5 μl/well stop solution (Millipore, Billerica, Mass.). 5 μl of detection mix (Millipore, Billerica, Mass.) was then added to each well and incubated for 6-18 hours in the dark. HRTF ratio was measured on a microplate reader (BMG Labtech., Germany) at an excitation wavelength of 337 nm and emission wavelengths of 665 and 615 nm with an integration time of 400 msec counting delay of 50 msec.

[8] = molecular target: PI3Kδ (Homo sapiens, UniProt O00329); assay: Assay 1: Fluorescent (HTRF) determination of PI3 kinase enzyme activity, PI3Kδ; format: biochemical
PI3Kδ, sequence (O00329 whole entry): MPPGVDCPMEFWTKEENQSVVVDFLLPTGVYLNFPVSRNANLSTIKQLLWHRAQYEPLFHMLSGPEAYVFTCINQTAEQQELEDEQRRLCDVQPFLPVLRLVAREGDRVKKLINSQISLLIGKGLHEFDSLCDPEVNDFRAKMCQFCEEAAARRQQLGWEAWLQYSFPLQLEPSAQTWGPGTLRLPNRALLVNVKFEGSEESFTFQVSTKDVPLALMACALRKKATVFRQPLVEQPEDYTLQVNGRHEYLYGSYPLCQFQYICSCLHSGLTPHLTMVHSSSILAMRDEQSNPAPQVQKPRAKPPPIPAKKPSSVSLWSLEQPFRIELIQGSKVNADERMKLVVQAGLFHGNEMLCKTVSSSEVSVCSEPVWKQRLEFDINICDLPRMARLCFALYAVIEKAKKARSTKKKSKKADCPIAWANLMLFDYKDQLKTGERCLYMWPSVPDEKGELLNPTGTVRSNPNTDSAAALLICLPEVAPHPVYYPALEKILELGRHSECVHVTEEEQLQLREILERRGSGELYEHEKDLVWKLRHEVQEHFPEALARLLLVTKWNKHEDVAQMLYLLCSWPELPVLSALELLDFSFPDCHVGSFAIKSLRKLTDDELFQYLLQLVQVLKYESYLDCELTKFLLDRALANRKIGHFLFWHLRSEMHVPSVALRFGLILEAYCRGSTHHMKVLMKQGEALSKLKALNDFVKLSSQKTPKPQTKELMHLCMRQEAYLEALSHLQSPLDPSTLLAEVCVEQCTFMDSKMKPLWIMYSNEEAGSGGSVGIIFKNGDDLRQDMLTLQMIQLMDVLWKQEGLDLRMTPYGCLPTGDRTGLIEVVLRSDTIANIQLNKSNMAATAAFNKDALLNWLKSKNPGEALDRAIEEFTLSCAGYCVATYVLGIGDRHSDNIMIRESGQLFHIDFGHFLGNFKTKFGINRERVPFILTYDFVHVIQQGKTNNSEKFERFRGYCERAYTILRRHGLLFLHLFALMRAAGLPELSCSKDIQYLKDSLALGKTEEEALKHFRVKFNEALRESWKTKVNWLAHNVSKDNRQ
PI3Kδ, sequence (P27986 whole entry partner): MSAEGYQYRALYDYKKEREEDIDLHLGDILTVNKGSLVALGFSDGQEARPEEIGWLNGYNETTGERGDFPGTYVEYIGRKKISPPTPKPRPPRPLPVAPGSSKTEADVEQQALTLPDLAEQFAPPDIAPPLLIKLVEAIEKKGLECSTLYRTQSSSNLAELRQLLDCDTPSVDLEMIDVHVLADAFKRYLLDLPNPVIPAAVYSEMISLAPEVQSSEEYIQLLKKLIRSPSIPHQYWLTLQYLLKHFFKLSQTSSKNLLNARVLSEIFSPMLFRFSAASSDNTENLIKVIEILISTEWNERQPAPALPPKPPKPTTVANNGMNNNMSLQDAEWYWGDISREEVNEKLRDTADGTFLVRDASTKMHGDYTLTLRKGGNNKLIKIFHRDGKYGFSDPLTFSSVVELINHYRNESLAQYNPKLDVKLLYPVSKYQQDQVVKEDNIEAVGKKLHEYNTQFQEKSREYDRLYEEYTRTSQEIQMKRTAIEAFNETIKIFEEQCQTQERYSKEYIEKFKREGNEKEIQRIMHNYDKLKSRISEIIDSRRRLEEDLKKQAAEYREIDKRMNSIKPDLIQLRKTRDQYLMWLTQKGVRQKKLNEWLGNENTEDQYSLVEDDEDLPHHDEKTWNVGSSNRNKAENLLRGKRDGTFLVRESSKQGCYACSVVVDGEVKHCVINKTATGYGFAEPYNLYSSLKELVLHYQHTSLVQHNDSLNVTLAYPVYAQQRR
Excerpt: as §2, §3

[9] = reported at 55th ASH Annual Meeting, 2013; cited from earlier work

Metabolic stability in liver microsomes (percent parent compound remaining), Mouse [1] [%] | Metabolic stability in liver microsomes (percent parent compound remaining), Dog [2] [%] | fold increase in AUC0-t as compared to Example 128 of WO 2012/151525 [3] [fold] | fold increase in Cmax as compared to Example 128 of WO 2012/151525 [3] [fold] | fold increase in t1/2 as compared to Example 128 of WO 2012/151525 [3] [fold] | AUC(0-t) ([3]; plasma) [µM·h] | Cmax ([3]; plasma) [nM] | Tmax ([3]; plasma) [h] | half-life ([3]; plasma) [h] | Metabolic stability in liver microsomes (percent parent compound remaining), Monkey [4] [%] | Metabolic stability in liver microsomes (percent parent compound remaining), Rat [5] [%] | Metabolic stability in liver microsomes (percent parent compound remaining), Human [6] [%] | IC50 ([7]; read-out: IC50 (nM) PI3Kγ) [nM] | IC50 [8] [nM] | IC50 ([7]; read-out: IC50 Pi3Kγ (cell prints μM)) [nM] | Structure (SMILES) | maximum tolerated dose (MTD) [9] [mg BID]
96 | 64.3 | ~4 | ~1.5 | ~2.8 | 7.95 | 1020 | 2.67 | 4.52 | 42.3 | 91 | 69.7 | 82.9 | 103 | – | COc1ccc(-c2nn(C(C)c3oc4cccc(F)c4c(=O)c3-c3cccc(F)c3)c3ncnc(N)c23)cc1NS(C)(=O)=O (racemic) [Compound A, (RS)—N-(5-(4-amino-1-(1-(5-fluoro-3-(3-fluorophenyl)-4-oxo-4H-chromen-2-yl)ethyl)-1H-pyrazolo[3,4-d]pyrimidin-3-yl)-2-methoxyphenyl)methanesulfonamide] | –
– | – | – | – | – | – | – | – | – | – | – | – | – | – | – | C[C@H](Nc1ncnc2[nH]cnc12)c1cc2cccc(Cl)c2c(=O)n1-c1ccccc1 [IPI-45] | 75
68.9 | 52.3 | – | – | – | – | – | – | – | 1.9 | 79.5 | 60.2 | > 10000 | 92.9 | > 10000 | COc1ccc(-c2nn([C@H](C)c3oc4cccc(F)c4c(=O)c3-c3cccc(F)c3)c3ncnc(N)c23)cc1NS(C)(=O)=O [Compound A2, (R)—N-(5-(4-amino-1-(1-(5-fluoro-3-(3-fluorophenyl)-4-oxo-4H-chromen-2-yl)ethyl)-1H-pyrazolo[3,4-d]pyrimidin-3-yl)-2-methoxyphenyl)methanesulfonamide] | –
